Data taken from paper PMC7687128, “Extracellular loops matter – subcellular location and function of the lysine transporter Lyp1 from Saccharomyces cerevisiae” (The Febs Journal, 2020).

What was measured:
Lyp1 (Lyp1-YPet) [1] = target: T1, Lyp1 (Lyp1-YPet) (Saccharomyces cerevisiae, UniProt P32487); assay: competition with […]-lysine uptake in S. cerevisiae cells; format: cell-based; details: 20 µM [14C]-lysine, 100 mM potassium phosphate, 10 mM glucose, pH 6.0, 30 °C; competitor
T1 construct: full-length, YPet fluorescent protein fusion, plasmid-expressed in S. cerevisiae, assayed in whole cells
T1 sequence (P32487 1-611): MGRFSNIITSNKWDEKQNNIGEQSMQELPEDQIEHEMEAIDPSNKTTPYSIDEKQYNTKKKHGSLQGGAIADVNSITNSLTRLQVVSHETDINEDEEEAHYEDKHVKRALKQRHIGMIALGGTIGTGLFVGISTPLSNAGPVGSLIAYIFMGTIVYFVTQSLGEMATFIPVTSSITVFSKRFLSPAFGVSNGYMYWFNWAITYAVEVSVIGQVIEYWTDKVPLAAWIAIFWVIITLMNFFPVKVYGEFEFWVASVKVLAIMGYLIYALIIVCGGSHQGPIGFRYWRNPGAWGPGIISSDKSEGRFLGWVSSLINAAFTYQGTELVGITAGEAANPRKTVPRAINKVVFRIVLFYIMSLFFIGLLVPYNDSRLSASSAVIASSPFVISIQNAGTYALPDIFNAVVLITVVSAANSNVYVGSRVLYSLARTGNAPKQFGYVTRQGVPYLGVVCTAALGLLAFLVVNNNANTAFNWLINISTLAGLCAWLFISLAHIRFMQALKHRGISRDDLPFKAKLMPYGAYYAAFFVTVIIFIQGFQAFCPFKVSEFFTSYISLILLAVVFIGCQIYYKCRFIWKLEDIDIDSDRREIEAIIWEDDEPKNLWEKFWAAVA

Lyp1 (Lyp1-YPet) [2] = target: T2, Lyp1 (Lyp1-YPet) (Saccharomyces cerevisiae, UniProt P32487, G289A/W291A); assay: initial rate of […]-lysine uptake in S. cerevisiae cells; format: cell-based; details: out-to-in transport; 100 mM potassium phosphate, 10 mM glucose, pH 6.0, 30 °C; labelled compound
T2 construct: full-length, YPet fluorescent protein fusion, plasmid-expressed in S. cerevisiae, assayed in whole cells
T2 sequence (P32487 1-611 G289A/W291A): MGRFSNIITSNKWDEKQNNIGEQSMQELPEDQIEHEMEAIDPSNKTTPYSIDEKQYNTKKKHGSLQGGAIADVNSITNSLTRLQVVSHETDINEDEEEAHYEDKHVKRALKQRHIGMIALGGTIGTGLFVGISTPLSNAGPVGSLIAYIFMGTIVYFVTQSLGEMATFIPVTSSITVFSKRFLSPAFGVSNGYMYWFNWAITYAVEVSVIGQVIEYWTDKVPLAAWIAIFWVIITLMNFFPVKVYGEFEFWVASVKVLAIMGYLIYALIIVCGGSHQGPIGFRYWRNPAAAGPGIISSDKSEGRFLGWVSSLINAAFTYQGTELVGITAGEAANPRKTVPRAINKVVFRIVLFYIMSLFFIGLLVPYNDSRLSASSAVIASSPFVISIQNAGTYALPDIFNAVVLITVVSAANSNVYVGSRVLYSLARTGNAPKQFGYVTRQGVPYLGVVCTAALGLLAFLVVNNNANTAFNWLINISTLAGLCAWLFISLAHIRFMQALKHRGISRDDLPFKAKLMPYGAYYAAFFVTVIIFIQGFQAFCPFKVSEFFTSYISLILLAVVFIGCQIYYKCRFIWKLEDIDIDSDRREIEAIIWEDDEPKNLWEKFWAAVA

Lyp1 (Lyp1-YPet) [3] = target: T3, Lyp1 (Lyp1-YPet) (Saccharomyces cerevisiae, UniProt P32487, I280A/G281A/F282A); assay: as above; format: cell-based; details: out-to-in transport; 100 mM potassium phosphate, 10 mM glucose, pH 6.0, 30 °C; labelled compound
T3 construct: full-length, YPet fluorescent protein fusion, plasmid-expressed in S. cerevisiae, assayed in whole cells
T3 sequence (P32487 1-611 I280A/G281A/F282A): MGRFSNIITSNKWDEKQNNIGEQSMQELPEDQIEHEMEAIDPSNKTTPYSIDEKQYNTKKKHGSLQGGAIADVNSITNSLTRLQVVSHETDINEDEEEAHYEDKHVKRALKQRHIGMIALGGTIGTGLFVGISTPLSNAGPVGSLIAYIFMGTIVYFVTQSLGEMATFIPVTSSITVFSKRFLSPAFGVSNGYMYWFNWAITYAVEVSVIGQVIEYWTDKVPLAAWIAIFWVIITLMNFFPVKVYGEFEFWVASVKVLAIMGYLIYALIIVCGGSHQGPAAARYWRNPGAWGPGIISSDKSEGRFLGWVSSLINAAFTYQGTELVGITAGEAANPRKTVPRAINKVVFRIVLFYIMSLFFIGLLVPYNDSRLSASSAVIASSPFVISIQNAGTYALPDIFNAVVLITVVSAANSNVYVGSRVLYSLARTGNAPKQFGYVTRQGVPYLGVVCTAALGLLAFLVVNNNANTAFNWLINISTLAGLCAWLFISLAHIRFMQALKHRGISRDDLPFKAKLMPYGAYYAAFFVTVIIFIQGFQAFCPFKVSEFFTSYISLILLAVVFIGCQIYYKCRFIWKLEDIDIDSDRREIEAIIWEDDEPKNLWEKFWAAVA

[4] = substrate: NCCCC[C@H](N)C(=O)O; assay: cells, lysate or membranes; format: cell-based, Saccharomyces cerevisiae; details: out-to-in transport, 100 mM potassium phosphate, 10 mM glucose, pH 6.0, 30 °C, labelled compound

## N[C@@H](Cc1cnc[nH]1)C(=O)O [histidine]
Lyp1 (Lyp1-YPet) [1]
  % reduction of lysine transport at 100 mM: > 80%

## N=C(N)NCCC[C@H](N)C(=O)O [arginine]
Lyp1 (Lyp1-YPet) [1]
  % reduction of lysine transport at 100 mM: > 80%

## NCCCC[C@H](N)C(=O)O [L-lysine]
Lyp1 (Lyp1-YPet) [2]
  Km: > 100 µM
Lyp1 (Lyp1-YPet) [3]
  Km: > 100 µM

## C[C@H](N)C(=O)O [alanine]
Lyp1 (Lyp1-YPet) [1]
  % reduction of lysine transport at 100 mM: > 80%

B1: Lyp1 (Lyp1-YPet) (Saccharomyces cerevisiae S288C) (protein)
chain: MGRFSNIITSNKWDEKQNNIGEQSMQELPEDQIEHEMEAIDPSNKTTPYSIDEKQYNTKKKHGSLQGGAIADVNSITNSLTRLQVVSHETDINEDEEEAHYEDKHVKRALKQRHIGMIALGGTIGTGLFVGISTPLSNAGPVGSLIAYIFMGTIVYFVTQSLGEMATFIPVTSSITVFSKRFLSPAFGVSNGYMYWFNWAITYAVEVSVIGQVIEYWTDKVPLAAWIAIFWVIITLMNFFPVKVYGEFEFWVASVKVLAIMGYLIYALIIVCGGSHQGPIGFRYWRNPGAWGPGIISSDKSEGRFLGWVSSLINAAFTYQGTELVGITAGEAANPRKTVPRAINKVVFRIVLFYIMSLFFIGLLVPYNDSRLSASSAVIASSPFVISIQNAGTYALPDIFNAVVLITVVSAANSNVYVGSRVLYSLARTGNAPKQFGYVTRQGVPYLGVVCTAALGLLAFLVVNNNANTAFNWLINISTLAGLCAWLFISLAHIRFMQALKHRGISRDDLPFKAKLMPYGAYYAAFFVTVIIFIQGFQAFCPFKVSEFFTSYISLILLAVVFIGCQIYYKCRFIWKLEDIDIDSDRREIEAIIWEDDEPKNLWEKFWAAVA
notes: full-length, YPet fluorescent protein fusion, plasmid-expressed in S. cerevisiae, assayed in whole cells
[4]
  Km: 10 µM

B2: Lyp1 (Lyp1-YPet) (Saccharomyces cerevisiae S288C; F471A/T469A) (protein)
chain: MGRFSNIITSNKWDEKQNNIGEQSMQELPEDQIEHEMEAIDPSNKTTPYSIDEKQYNTKKKHGSLQGGAIADVNSITNSLTRLQVVSHETDINEDEEEAHYEDKHVKRALKQRHIGMIALGGTIGTGLFVGISTPLSNAGPVGSLIAYIFMGTIVYFVTQSLGEMATFIPVTSSITVFSKRFLSPAFGVSNGYMYWFNWAITYAVEVSVIGQVIEYWTDKVPLAAWIAIFWVIITLMNFFPVKVYGEFEFWVASVKVLAIMGYLIYALIIVCGGSHQGPIGFRYWRNPGAWGPGIISSDKSEGRFLGWVSSLINAAFTYQGTELVGITAGEAANPRKTVPRAINKVVFRIVLFYIMSLFFIGLLVPYNDSRLSASSAVIASSPFVISIQNAGTYALPDIFNAVVLITVVSAANSNVYVGSRVLYSLARTGNAPKQFGYVTRQGVPYLGVVCTAALGLLAFLVVNNNANAAANWLINISTLAGLCAWLFISLAHIRFMQALKHRGISRDDLPFKAKLMPYGAYYAAFFVTVIIFIQGFQAFCPFKVSEFFTSYISLILLAVVFIGCQIYYKCRFIWKLEDIDIDSDRREIEAIIWEDDEPKNLWEKFWAAVA
notes: as for B1
[4]
  Km: 25 ± 21 µM

B3: Lyp1 (Lyp1-YPet) (Saccharomyces cerevisiae S288C; E215A/W217A/Y216A) (protein)
chain: MGRFSNIITSNKWDEKQNNIGEQSMQELPEDQIEHEMEAIDPSNKTTPYSIDEKQYNTKKKHGSLQGGAIADVNSITNSLTRLQVVSHETDINEDEEEAHYEDKHVKRALKQRHIGMIALGGTIGTGLFVGISTPLSNAGPVGSLIAYIFMGTIVYFVTQSLGEMATFIPVTSSITVFSKRFLSPAFGVSNGYMYWFNWAITYAVEVSVIGQVIAAATDKVPLAAWIAIFWVIITLMNFFPVKVYGEFEFWVASVKVLAIMGYLIYALIIVCGGSHQGPIGFRYWRNPGAWGPGIISSDKSEGRFLGWVSSLINAAFTYQGTELVGITAGEAANPRKTVPRAINKVVFRIVLFYIMSLFFIGLLVPYNDSRLSASSAVIASSPFVISIQNAGTYALPDIFNAVVLITVVSAANSNVYVGSRVLYSLARTGNAPKQFGYVTRQGVPYLGVVCTAALGLLAFLVVNNNANTAFNWLINISTLAGLCAWLFISLAHIRFMQALKHRGISRDDLPFKAKLMPYGAYYAAFFVTVIIFIQGFQAFCPFKVSEFFTSYISLILLAVVFIGCQIYYKCRFIWKLEDIDIDSDRREIEAIIWEDDEPKNLWEKFWAAVA
notes: as for B1
[4]
  Km: 34 ± 17 µM

B4: Lyp1 (Lyp1-YPet) (Saccharomyces cerevisiae S288C; G292A/G294A/P293A) (protein)
chain: MGRFSNIITSNKWDEKQNNIGEQSMQELPEDQIEHEMEAIDPSNKTTPYSIDEKQYNTKKKHGSLQGGAIADVNSITNSLTRLQVVSHETDINEDEEEAHYEDKHVKRALKQRHIGMIALGGTIGTGLFVGISTPLSNAGPVGSLIAYIFMGTIVYFVTQSLGEMATFIPVTSSITVFSKRFLSPAFGVSNGYMYWFNWAITYAVEVSVIGQVIEYWTDKVPLAAWIAIFWVIITLMNFFPVKVYGEFEFWVASVKVLAIMGYLIYALIIVCGGSHQGPIGFRYWRNPGAWAAAIISSDKSEGRFLGWVSSLINAAFTYQGTELVGITAGEAANPRKTVPRAINKVVFRIVLFYIMSLFFIGLLVPYNDSRLSASSAVIASSPFVISIQNAGTYALPDIFNAVVLITVVSAANSNVYVGSRVLYSLARTGNAPKQFGYVTRQGVPYLGVVCTAALGLLAFLVVNNNANTAFNWLINISTLAGLCAWLFISLAHIRFMQALKHRGISRDDLPFKAKLMPYGAYYAAFFVTVIIFIQGFQAFCPFKVSEFFTSYISLILLAVVFIGCQIYYKCRFIWKLEDIDIDSDRREIEAIIWEDDEPKNLWEKFWAAVA
notes: as for B1
[4]
  Km: 63 ± 83 µM

B5: Lyp1 (Lyp1-YPet) (Saccharomyces cerevisiae S288C; N390A/Q389A) (protein)
chain: MGRFSNIITSNKWDEKQNNIGEQSMQELPEDQIEHEMEAIDPSNKTTPYSIDEKQYNTKKKHGSLQGGAIADVNSITNSLTRLQVVSHETDINEDEEEAHYEDKHVKRALKQRHIGMIALGGTIGTGLFVGISTPLSNAGPVGSLIAYIFMGTIVYFVTQSLGEMATFIPVTSSITVFSKRFLSPAFGVSNGYMYWFNWAITYAVEVSVIGQVIEYWTDKVPLAAWIAIFWVIITLMNFFPVKVYGEFEFWVASVKVLAIMGYLIYALIIVCGGSHQGPIGFRYWRNPGAWGPGIISSDKSEGRFLGWVSSLINAAFTYQGTELVGITAGEAANPRKTVPRAINKVVFRIVLFYIMSLFFIGLLVPYNDSRLSASSAVIASSPFVISIAAAGTYALPDIFNAVVLITVVSAANSNVYVGSRVLYSLARTGNAPKQFGYVTRQGVPYLGVVCTAALGLLAFLVVNNNANTAFNWLINISTLAGLCAWLFISLAHIRFMQALKHRGISRDDLPFKAKLMPYGAYYAAFFVTVIIFIQGFQAFCPFKVSEFFTSYISLILLAVVFIGCQIYYKCRFIWKLEDIDIDSDRREIEAIIWEDDEPKNLWEKFWAAVA
notes: as for B1
[4]
  Km: 7.4 ± 1.0 µM
